Data as given in US8551956B2, “Compositions containing peptides with non-natural amino acids and methods of use” (Avon Products, Inc., priority 2006, dated 2013).

Tested on: Fibronectin
Test: Stimulation of fibronectin production in Normal Human Dermal Fibroblasts-Adult, competitive inhibition ELISA of conditioned medium
Type: cell-based
Conditions: in vitro, concentration not given
Experimental: Normal Human Dermal Fibroblasts-Adult (Cascade Biologics) were cultured in 12-well tissue culture treated plates and treated for 72 hours in the presence or absence of test actives. Following incubation, the conditioned medium from each treatment was collected in a 1.7 mL microcentrifuge tube and frozen at −80° C. for subsequent analysis. The assay was in the format of a competitive inhibition ELISA.
Human fibronectin was pre-coated on the wells except for one row, which served as a reference. Standards and samples were pre-incubated with polyclonal rabbit antibody to human fibronectin. The polyclonal antibody was bound to the fibronectin in the standard dilutions, and in the sample, if present. The mixture was then transferred to the human fibronectin-coated plate. Free rabbit anti-human fibronectin was bound to the fibronectin on the plate. Goat anti-rabbit IgG HRP-conjugate reacted with bound rabbit anti-fibronectin. When HRP substrate was added, a blue color developed. The reaction was stopped by the addition of an acid, changing the color to yellow. This color was quantitated using a microplate reader set at 450 nm. The intensity of the color was inversely proportional to the amount of fibronectin in the original sample.

NCCCC[C@H](N)C(=O)NCCCCC(=O)NCCCC[C@H](N)C(=O)O [KavaK]
Fibronectin production, more compared to untreated control fibroblasts: 28%
